Experimental findings from patent EP0750618B1, “OXAZOLIDINONE DERIVATIVES AND PHARMACEUTICAL COMPOSITIONS CONTAINING THEM” (priority 1994, dated 1995) are described below.

Each structure is given as a SMILES string. ≈ marks a conversion by molar mass, not a printed value.

What all share (assay): MIC test, standard agar dilution method
Assay [1] deals with Staphylococcus aureus. The note with it: UC9213, read-out: Minimum Inhibitory Concentrations (MIC) S. aureus.
Assay [2] relates to Streptococcus pyogenes (UC 152). The note with it: UC152, read-out: Minimum Inhibitory Concentrations (MIC) S. pyogenes.
The test system of assay [3] is Staphylococcus epidermidis (UC 12084). Format: cell-based. The note with it: UC12084, incubated overnight at 35°C, read-out: Minimum Inhibitory Concentrations (MIC) S. enidermidis.

Turning to `CC(=O)NC[C@H]1CN(c2ccc(N3CCC(N)CC3)c(F)c2)C(=O)O1` [Compound No. 6, (S)-N-{3-[4-(4-amino-piperidin-1-yl)-3-fluoro-phenyl]-2-oxo-oxazolidin-5-ylmethyl}-acetamide], the values for the MIC in assay [1], in assay [2] and in assay [3] were greater than 64 µg/mL, 1 µg/mL (≈ 2.85 µM) and 32 µg/mL (≈ 91.3 µM), respectively.
As to `CC(=O)NC[C@H]1CN(c2ccc(N3CCC(=O)C(CO)C3)c(F)c2)C(=O)O1` (stereo partly drawn) [Compound No. 37, (S)-N-{3-[3-fluoro-4-(3-hydroxymethyl-4-oxo-piperidin-1-yl)-phenyl]-2-oxo-oxazolidin-5-ylmethyl}-acetamide], the figures for the MIC in assay [1], in assay [2] and in assay [3] were 8 µg/mL (≈ 21.1 µM), 2 µg/mL (≈ 5.27 µM) and 2 µg/mL (≈ 5.27 µM), respectively.
Regarding `CC(=O)NC[C@H]1CN(c2ccc(N3CCC4(CC3)OCCO4)c(F)c2)C(=O)O1` [compound 28, (S)-N-{3-[4-(1,4-dioxa-8-aza-sprio[4.5]dec-8-yl)-3-fluoro-phenyl]-2-oxo-oxazolidin-5-ylmethyl}-acetamide], the MIC in assay [1] was found to be 8 µg/mL (≈ 20.3 µM); in assay [2], 4 µg/mL (≈ 10.2 µM); in assay [3], 2 µg/mL (≈ 5.08 µM).
With `CC(=O)NC[C@H]1CN(c2ccc(N3CCC(C4(C)OCCO4)CC3)c(F)c2)C(=O)O1` [Compound No. 35, (S)-N-(3-{3-fluoro-4-[4-(2-methyl-[1,3]dioxolan-2-yl)-piperidin-1-yl]-phenyl}-2-oxo-oxazolidin-5-ylmethyl)-acetamide], the MIC in assay [1] stood at 8 µg/mL (≈ 19 µM); in assay [2] it was 2 µg/mL (≈ 4.75 µM); in assay [3] it was 2 µg/mL (≈ 4.75 µM).
For `COC(=O)CON=C1CCN(c2ccc(N3C[C@H](CNC(C)=O)OC3=O)cc2F)CC1` [compound 47, (S)-(1-{4-[5-(acetylamino-methyl)-2-oxo-oxazolidin-3-yl]-2-fluoro-phenyl}-piperidin-4-ylideneaminooxy)-acetic acid methyl ester], the MIC worked out at 8 µg/mL (≈ 18.3 µM) in assay [1], 2 µg/mL (≈ 4.58 µM) in assay [2] and 1 µg/mL (≈ 2.29 µM) in assay [3].
In the case of `CC(=O)NC[C@H]1CN(c2ccc(N3CCC(=NNC(N)=O)CC3)c(F)c2)C(=O)O1` [compound 39, (S)-N-{3-[3-fluoro-4-(4-semicarbazono-piperidin-1-yl)-phenyl]-2-oxo-oxazolidin-5-ylmethyl}-acetamide], the results for the MIC in assay [1], in assay [2] and in assay [3] were 2 µg/mL (≈ 4.92 µM), 2 µg/mL (≈ 4.92 µM) and 0.5 µg/mL (≈ 1.23 µM), respectively.
As to `C=CCON=C1CCN(c2ccc(N3C[C@H](CNC(C)=O)OC3=O)cc2F)CC1` [Compound No. 58, (S)-N-{3-[4-(4-allyloxyimino-piperidin-1-yl)-3-fluoro-phenyl]-2-oxo-oxazolidin-5-ylmethyl}-acetamide], the MIC was 8 µg/mL (≈ 19.8 µM) in assay [1], 2 µg/mL (≈ 4.95 µM) in assay [2] and 1 µg/mL (≈ 2.47 µM) in assay [3].
The like results for `CC(=O)NC[C@H]1CN(c2ccc(N3CCC(=NN)CC3)c(F)c2)C(=O)O1` [compound 46, (S)-N-{3-[3-fluoro-4-(4-hydrazono-piperidin-1-yl)-phenyl]-2-oxo-oxazolidin-5-ylmethyl}-acetamide] were, in that order, 2 µg/mL (≈ 5.5 µM), 2 µg/mL (≈ 5.5 µM) and 0.5 µg/mL (≈ 1.38 µM).
On the same counts, the results for `CC(=O)NC[C@H]1CN(c2ccc(N3CCC(CC4(C)OCCO4)CC3)c(F)c2)C(=O)O1` [Compound No. 32, (S)-N-(3-{3-fluoro-4-[4-(2-methyl-[1,3]dioxolan-2-ylmethyl)-piperidin-1-yl]-phenyl}-2-oxo-oxazolidin-5-ylmethyl)-acetamide] are 16 µg/mL (≈ 36.7 µM), 4 µg/mL (≈ 9.18 µM) and 4 µg/mL (≈ 9.18 µM).
As for `CC(=O)NC[C@H]1CN(c2ccc(N3CCC(Nc4nccs4)CC3)c(F)c2)C(=O)O1` [Compound No. 63, (S)-N-(3-{3-fluoro-4-[4-(thiazol-2-ylamino)-piperidin-1-yl]-phenyl}-2-oxo-oxazolidin-5-ylmethyl)-acetamide], the figures for the MIC in assay [1], in assay [2] and in assay [3] were 16 µg/mL (≈ 36.9 µM), 2 µg/mL (≈ 4.61 µM) and 2 µg/mL (≈ 4.61 µM), respectively.
`CC(=O)NC[C@H]1CN(c2ccc(N3CCC(=NNC(=N)N)CC3)c(F)c2)C(=O)O1` [compound 42, (S)-N-{3-[3-fluoro-4-(4-amidinohydrazono-piperidin-1-yl)-phenyl]-2-oxo-oxazolidin-5-ylmethyl}-acetamide]: the MIC was determined as 8 µg/mL (≈ 19.7 µM) in assay [1], 0.5 µg/mL (≈ 1.23 µM) in assay [2] and 2 µg/mL (≈ 4.93 µM) in assay [3].
The like results for `CC(=O)NC[C@H]1CN(c2ccc(N3CCC(NC(C)=O)CC3)c(F)c2)C(=O)O1` [compound 9, (S)-N-{3-[4-(4-acetylamino-piperidin-1-yl)-3-fluoro-phenyl]-2-oxo-oxazolidin-5-ylmethyl}-acetamide] were, in that order, 16 µg/mL (≈ 40.8 µM), 4 µg/mL (≈ 10.2 µM) and 2 µg/mL (≈ 5.1 µM).
The like results for `CC(=O)CC1CCN(c2ccc(N3C[C@H](CNC(C)=O)OC3=O)cc2F)CC1` [compound 33, (S)-N-(3-{3-fluoro-4-[4-(2-oxo-propyl)-piperidin-1-yl]-phenyl}-2-oxo-oxazolidin-5-ylmethyl)-acetamide] were, in that order, 8 µg/mL (≈ 20.4 µM), 2 µg/mL (≈ 5.11 µM) and 2 µg/mL (≈ 5.11 µM).
In the case of `COCCNC1CCN(c2ccc(N3C[C@H](CNC(C)=O)OC3=O)cc2F)CC1` [compound 64, (S)-N-(3-{3-fluoro-4-[4-(2-methoxy-ethylamino)-piperidin-1-yl]-phenyl}-2-oxo-oxazolidin-5-ylmethyl)-acetamide], the MIC in assay [1] is 32 µg/mL (≈ 78.3 µM); in assay [2] it was 1 µg/mL (≈ 2.45 µM); in assay [3], 2 µg/mL (≈ 4.9 µM).
The like results for `CC(=O)NC[C@H]1CN(c2ccc(N3CCC(=NOCCO)CC3)c(F)c2)C(=O)O1` [compound 48, (S)-N-(3-{3-fluoro-4-[4-(2-hydroxy-ethoxyimino)-piperidin-1-yl]-phenyl}-2-oxo-oxazolidin-5-ylmethyl)-acetamide] were, in that order, 8 µg/mL (≈ 19.6 µM), 2 µg/mL (≈ 4.9 µM) and 1 µg/mL (≈ 2.45 µM).
The like results for `CON=C1CCN(c2ccc(N3C[C@H](CNC(C)=O)OC3=O)cc2F)CC1` [Compound No. 29, (S)-N-{3-[3-fluoro-4-(4-methoxyimino-piperidin-1-yl)-phenyl]-2-oxo-oxazolidin-5-ylmethyl}-acetamide] were, in that order, 4 µg/mL (≈ 10.6 µM), 4 µg/mL (≈ 10.6 µM) and 1 µg/mL (≈ 2.64 µM).
`CC(=O)NC[C@H]1CN(c2ccc(N3CCC(C(C)=O)CC3)c(F)c2)C(=O)O1` [compound 36, (S)-N-{3-[4-(4-acetyl-piperidin-1-yl)-3-fluoro-phenyl]-2-oxo-oxazolidin-5-ylmethyl}-acetamide]: the figures for the MIC in assay [1], in assay [2] and in assay [3] were 4 µg/mL (≈ 10.6 µM), 2 µg/mL (≈ 5.3 µM) and 1 µg/mL (≈ 2.65 µM), respectively.
Take `CC(=O)NC[C@H]1CN(c2ccc(N3CCC(=Nn4cnnc4)CC3)c(F)c2)C(=O)O1` [compound 51, (S)-N-(3-{3-fluoro-4-[4-([1,2,4]triazol-4-ylimino)-piperidin-1-yl]-phenyl}-2-oxo-oxazolidin-5-ylmethyl)-acetamide]: the figures for the MIC in assay [1], in assay [2] and in assay [3] were 4 µg/mL (≈ 9.63 µM), 2 µg/mL (≈ 4.81 µM) and 1 µg/mL (≈ 2.41 µM), respectively.
Take `CC(=O)NC[C@H]1CN(c2ccc(N3CCC(=NNCCO)CC3)c(F)c2)C(=O)O1` [compound 41, (S)-N-[3-(3-fluoro-4-{4-[(2-hydroxy-ethyl)-hydrazono]-piperidin-1-yl}-phenyl)-2-oxo-oxazolidin-5-ylmethyl]-acetamide]: the results for the MIC in assay [1], in assay [2] and in assay [3] were 4 µg/mL (≈ 9.82 µM), 1 µg/mL (≈ 2.45 µM) and 0.5 µg/mL (≈ 1.23 µM), respectively.
Turning to `CC(=O)NC[C@H]1CN(c2ccc(N3CCC(CO)CC3)c(F)c2)C(=O)O1` [Compound No. 4, (S)-N-{3-[3-fluoro-4-(4-hydroxymethyl-piperidin-1-yl)-phenyl]-2-oxo-oxazolidin-5-ylmethyl}-acetamide], the values for the MIC in assay [1], in assay [2] and in assay [3] were 8 µg/mL (≈ 21.9 µM), 2 µg/mL (≈ 5.47 µM) and 2 µg/mL (≈ 5.47 µM), respectively.
Take `CC(=O)NC[C@H]1CN(c2ccc(N3CCC(C4(CO)OCCO4)CC3)c(F)c2)C(=O)O1` [Compound No. 44, (S)-N-(3-{3-fluoro-4-[4-(2-hydroxymethyl-[1,3]dioxolan-2-yl)-piperidin-1-yl]-phenyl}-2-oxo-oxazolidin-5-ylmethyl)-acetamide]: the MIC in assay [1] amounted to 16 µg/mL (≈ 36.6 µM); in assay [2] it was 24 µg/mL (≈ 54.9 µM); in assay [3], 2 µg/mL (≈ 4.57 µM).
Turning to `COCON=C1CCN(c2ccc(N3C[C@H](CNC(C)=O)OC3=O)cc2F)CC1` [compound 60, (S)-N-{3-[3-fluoro-4-(4-methoxymethoxyimino-piperidin-1-yl)-phenyl]-2-oxo-oxazolidin-5-ylmethyl}-acetamide], the MIC in assay [1] came to 8 µg/mL (≈ 19.6 µM); in assay [2] it was 2 µg/mL (≈ 4.9 µM); in assay [3], 2 µg/mL (≈ 4.9 µM).
Consider `CCOC(=O)CC(=O)NN=C1CCN(c2ccc(N3C[C@H](CNC(C)=O)OC3=O)cc2F)CC1` [compound 56, (S)-(1-{4-[5-(acetylamino-methyl)-2-oxo-oxazolidin-3-yl]-2-fluorophenyl}-piperidin-4-ylidenehydrazinocarbonyl)-acetic acid ethyl ester], for which the MIC in assay [1] is 4 µg/mL (≈ 8.38 µM); in assay [2], 2 µg/mL (≈ 4.19 µM); in assay [3], 1 µg/mL (≈ 2.09 µM).
Turning to `CC(=O)NC[C@H]1CN(c2ccc(N3CCC(=NOCC(O)CO)CC3)c(F)c2)C(=O)O1` (stereo partly drawn) [Compound No. 62, (S)-N-(3-{4-[4-(2,3-dihydroxy-propoxyimino)-piperidin-1-yl]-3-fluorophenyl}-2-oxo-oxazolidin-5-ylmethyl)-acetamide], the MIC in assay [1] came to 8 µg/mL (≈ 18.2 µM); in assay [2] it was 2 µg/mL (≈ 4.56 µM); in assay [3], 1 µg/mL (≈ 2.28 µM).
On the same counts, the results for `CC(=O)NC[C@H]1CN(c2ccc(N3CCC4(CC3)OCC(CO)O4)c(F)c2)C(=O)O1` (stereo partly drawn) [Compound No. 52, (S)-N-{3-[3-fluoro-4-(2-hydroxymethyl-1,4-dioxa-8-aza-spiro[4.5]dec-8-yl)-phenyl]-2-oxo-oxazolidin-5-ylmethyl}-acetamide] are 16 µg/mL (≈ 37.8 µM), 4 µg/mL (≈ 9.45 µM) and 2 µg/mL (≈ 4.72 µM).
On the same counts, the results for `CC(=O)NC[C@H]1CN(c2ccc(N3CCC(NC(=O)CO)CC3)c(F)c2)C(=O)O1` [compound 10, (S)-N-(1-{4-[5-(acetylamino-methyl)-2-oxo-oxazolidin-3-yl]-2-fluoro-phenyl}-piperidin-4-yl)-2-hydroxy-acetamide] are 16 µg/mL (≈ 39.2 µM), 2 µg/mL (≈ 4.9 µM) and 2 µg/mL (≈ 4.9 µM).
